For 16 compounds, EC (150% of control) results are on record in US9670206B2, “Pyrido[4,3-B]pyrazine-2-carboxamides as neurogenic agents for the treatment of neurodegenerative disorders” (Hoffmann-La Roche Inc., priority 2013, dated 2017).

Each structure is given as a SMILES string.

The subject of the experiment is human embryonic stem cell derived neural stem cells (NSCs). The experiment can be described thus: Neural stem cell proliferation assay (neurogenesis assay, ATP levels by CellTiterGlo). Format: cell-based. The following applies: 96 h, compound concentration at which 150% activity of control (100%) is reached, NSC proliferation, ATP readout after 4 days incubation. The procedure:
Neural Stem Cell Proliferation Assay
Neurogenic properties of small molecules are determined based on the proliferation of human embryonic stem cell derived neural stem cells (NSCs) which were derived via a dual smad inhibition as previously described (Chambers, S. M., et al., Highly efficient neural conversion of human ES and iPS cells by dual inhibition of SMAD signaling, Nature biotechnology, 2009. 27(3): p. 275-80.) Compounds respond is measured by the increase in cells based on ATP levels (Promega:CellTiterGlo®) after an incubation period of 4 days. NSCs are thawed and expanded over 3 passages. On the 14th day, NSCs are seeded in Polyornithin/Laminin coated 384 well plates at a cell density of 21,000 cells/cm^2 in a media volume of 38 μl. 4 hours after cell seeding, compound solutions are added at a volume of 2 μl. Stock solutions of the compounds (water, 5% DMSO) are diluted to obtain a dose response (11 points, dilution factor is 2), ranging from 8 μM to 8 nM. Controls are run to consistently determine the neurogenic properties of the cells: Negative (neutral) control is cell culture Media (final DMSO concentration: 0.25%). Positive controls are: • 1. cell culture Media+100 ng/ml FGF2 (final DMSO concentration: 0.1%) • 2. cell culture Media+20 ng/ml EGF (final DMSO concentration: 0.1%) • 3. cell culture Media+100 ng/ml Wnt3a (final DMSO concentration: 0.1%) After 4 days incubation at 37° C., 5% CO2, the amount of ATP per well is quantified. The ATP concentration is proportional to the cell number. ATP is quantified by using the Promega CellTiterGlo® kit. The CellTiterGlo® reagents contain a cell lysis buffer, a thermo stable luciferase (UltraGlo™ recombinant luciferase), magnesium and luciferin. Luciferin reacts with ATP producing oxyluciferin, AMP and light. The luminescence signal is proportional to the ATP content. The value of negative (neutral) control is determined for each assay plate by taking the average of 16 negative control wells. The neurogenic compound response is calculated for each compound as (compound/Negative Control)*100. The values of EC150 from the dose response curve are determined for each test compound. The EC150 is the compound concentration at which 150% activity of control (100%) is reached.

`O=C(c1cnc2cncc(-c3ccc(Cl)cc3F)c2n1)N1CCC(O)C1` (stereo not shown) [Example 38, (8-(4-Chloro-2-fluorophenyl)pyrido[4,3-b]pyrazin-2-yl)(3-hydroxypyrrolidin-1-yl)methanone] showed an EC (150% of control) of 0.1 µM. Turning to `O=C(c1cnc2cncc(-c3ccc(Cl)cc3Cl)c2n1)N1CCC(O)C1` (stereo not shown) [Example 39, (8-(2,4-Dichlorophenyl)pyrido[4,3-b]pyrazin-2-yl)(3-hydroxypyrrolidin-1-yl)methanone], the EC (150% of control) worked out at 0.11 µM. As for `O=C(c1cnc2cncc(-c3cc(C(F)(F)F)ccc3F)c2n1)N1CCC(O)C1` (stereo not shown) [Example 40, (8-(2-Fluoro-5-(trifluoromethyl)phenyl)pyrido[4,3-b]pyrazin-2-yl)(3-hydroxypyrrolidin-1-yl)methanone], the EC (150% of control) turned out to be 0.93 µM. To `O=C(c1cnc2cncc(-c3cccc(OC(F)(F)F)c3)c2n1)N1CCC(O)C1` (stereo not shown) [Example 41, (3-Hydroxypyrrolidin-1-yl)(8-(3-(trifluoromethoxy)phenyl)pyrido[4,3-b]pyrazin-2-yl)methanone] belongs 0.6 µM. Turning to `NC(=O)c1cnc2cncc(N3CCC(F)(F)CC3)c2n1` [Example 42, 8-(4,4-Difluoropiperidin-1-yl)pyrido[4,3-b]pyrazine-2-carboxamide], the EC (150% of control) was determined as 0.09 µM. Consider `O=C(c1cnc2cncc(-c3ccc(Cl)nc3)c2n1)N1CCC(O)C1` (stereo not shown) [Example 43, (8-(6-Chloropyridin-3-yl)pyrido[4,3-b]pyrazin-2-yl)(3-hydroxypyrrolidin-1-yl)methanone], for which the EC (150% of control) was 0.03 µM.

In turn, `O=C(c1cnc2cncc(-c3ccc(Cl)c(F)c3)c2n1)N1CCC(O)C1` (stereo not shown) [Example 44, (8-(4-Chloro-3-fluorophenyl)pyrido[4,3-b]pyrazin-2-yl)(3-hydroxypyrrolidin-1-yl)methanone] showed an EC (150% of control) of 0.27 µM. `O=C(c1cnc2cncc(-c3ccc(C(F)(F)F)cc3F)c2n1)N1CCC(O)C1` (stereo not shown) [Example 45, (8-(2-Fluoro-4-(trifluoromethyl)phenyl)pyrido[4,3-b]pyrazin-2-yl)(3-hydroxypyrrolidin-1-yl)methanone]: the EC (150% of control) was 1.48 µM. For the compound `CC(NC(=O)c1cnc2cncc(-c3ccc(Cl)c(F)c3)c2n1)C(C)(C)O` (stereo not shown) [Example 46, 8-(4-Chloro-3-fluorophenyl)-N-(3-hydroxy-3-methylbutan-2-yl)pyrido[4,3-b]pyrazine-2-carboxamide], the EC (150% of control) is 0.29 µM.

Turning to `CC(NC(=O)c1cnc2cncc(-c3cc(F)c(F)c(F)c3)c2n1)C(C)(C)O` (stereo not shown) [Example 47, N-(3-Hydroxy-3-methylbutan-2-yl)-8-(3,4,5-trifluorophenyl)pyrido[4,3-b]pyrazine-2-carboxamide], the EC (150% of control) was found to be 0.03 µM. With `O=C(c1cnc2cncc(-c3ccc(CO)cc3)c2n1)N1CCC(O)C1` (stereo not shown) [Example 48, (8-(4-(Hydroxymethyl)phenyl)pyrido[4,3-b]pyrazin-2-yl)(3-hydroxypyrrolidin-1-yl)methanone], the EC (150% of control) amounted to 0.67 µM. To `CC(NC(=O)c1cnc2cncc(-c3ccnn3C)c2n1)C(C)(C)O` (stereo not shown) [Example 49, N-(3-Hydroxy-3-methylbutan-2-yl)-8-(1-methyl-1H-pyrazol-5-yl)pyrido[4,3-b]pyrazine-2-carboxamide] belongs 0.02 µM; to `Cn1nccc1-c1cncc2ncc(C(N)=O)nc12` [Example 50, 8-(1-Methyl-1H-pyrazol-5-yl)pyrido[4,3-b]pyrazine-2-carboxamide], 0.02 µM. To `Cc1ccc(-c2cncc3ncc(C(=O)NC(C)C(C)(C)O)nc23)cn1` (stereo not shown) [Example 51, N-(3-Hydroxy-3-methylbutan-2-yl)-8-(6-methylpyridin-3-yl)pyrido[4,3-b]pyrazine-2-carboxamide] belongs 0.08 µM; to `O=C(c1cnc2cncc(-c3ccc(C(F)(F)F)c(F)c3)c2n1)N1CCC(O)C1` (stereo not shown) [Example 52, (8-(3-Fluoro-4-(trifluoromethyl)phenyl)pyrido[4,3-b]pyrazin-2-yl)(3-hydroxypyrrolidin-1-yl)methanone], 0.07 µM; to `Cc1cccc(-c2cncc3ncc(C(=O)NC(C)C(C)(C)O)nc23)n1` (stereo not shown) [Example 53, N-(3-Hydroxy-3-methylbutan-2-yl)-8-(6-methylpyridin-2-yl)pyrido[4,3-b]pyrazine-2-carboxamide], 0.5 µM.
